Measured values from ChEMBL document CHEMBL1133405, “Design and synthesis of functionalized glycomers as non-peptidic ligands for SH2 binding and as inhibitors of A-431 human epidermoid and HT-29 colon carcinoma cell lines” (Bioorg Med Chem Lett, 2000).

Experiments:
A-431 = assay: Cytotoxicity measured for the growth inhibition of A-431 Human epidermoid carcinoma cell line; assay type: functional, cell-based
HT-29 = assay: Cytotoxicity of compound was measured for the growth inhibition of HT-29 human colon carcinoma cell line; assay type: functional, cell-based
[1] = biological target: Growth factor receptor-bound protein 2 (Homo sapiens) (UniProt P62993); assay: Compound was evaluated for the inhibitory activity against Growth factor receptor bound protein 2 SH2 at a concentration of 100 uM
Growth factor receptor-bound protein 2 (Homo sapiens), sequence (P62993 whole entry, looked up): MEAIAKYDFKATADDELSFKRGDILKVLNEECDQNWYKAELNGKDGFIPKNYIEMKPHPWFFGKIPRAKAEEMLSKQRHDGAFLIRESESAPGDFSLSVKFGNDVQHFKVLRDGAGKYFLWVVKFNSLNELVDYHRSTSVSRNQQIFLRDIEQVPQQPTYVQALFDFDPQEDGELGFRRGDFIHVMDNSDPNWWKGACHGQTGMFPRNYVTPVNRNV

SMILES	IC50 (A-431) [µM]	IC50 (HT-29) [µM]	inhibition [1] [%]
C=CCO[C@@H]1[C@H](O)[C@H](Oc2ccc(I)cc2)O[C@@H](COC(=O)c2ccccc2)[C@H]1O	> 50	> 50	
C=CCO[C@@H]1[C@H](O)[C@H](Oc2ccc(I)cc2)O[C@@H](COC(=O)c2ccc(OC)cc2)[C@H]1O	24.6	55.1	
C=CCO[C@H]1[C@H](O)[C@H](COS(=O)(=O)c2ccc3ccccc3c2)O[C@@H](Oc2ccc(I)cc2)[C@H]1OC(C)=O	5.2	11.6	
C=CCO[C@H]1[C@H](O)[C@H](COS(=O)(=O)c2cccc(C(F)(F)F)c2)O[C@@H](Oc2ccc(I)cc2)[C@H]1OC(C)=O	6.1	23.1	
CCCO[C@H]1[C@H](O)[C@H](COS(=O)(=O)c2cccc(C(F)(F)F)c2)O[C@@H](Oc2ccc(OP(=O)(O)O)cc2)[C@H]1OC(C)=O [GLYCOMER]	38.8	35.5	
C=CCO[C@@H]1[C@H](O)[C@H](Oc2ccc(I)cc2)O[C@@H](COCc2ccc(OC)cc2)[C@H]1O	10.6	19.7	
C=CCO[C@H]1[C@H](O)[C@H](COS(=O)(=O)c2cccc(C(F)(F)F)c2)O[C@@H](Oc2ccc(I)cc2)[C@H]1OC(=O)CC	2.17	4.65	
C=CCO[C@H]1[C@H](O)[C@H](COS(=O)(=O)c2cccc(C(F)(F)F)c2)O[C@@H](Oc2ccc(I)cc2)[C@H]1OC(=O)CCc1ccccc1	2	3	
C=CCO[C@@H]1[C@H](O)[C@H](Oc2ccc(I)cc2)O[C@@H](COS(=O)(=O)c2cccc(C(F)(F)F)c2)[C@H]1O	36.8	35.5	
C=CCO[C@@H]1[C@H](O)[C@H](Oc2ccc(I)cc2)O[C@@H](COC(=O)c2ccc3ccccc3c2)[C@H]1O	> 50	> 50	
O=C(Nc1ccccc1)OCCO[C@@H]1[C@H](O)[C@H](Oc2ccc(I)cc2)O[C@@H](COS(=O)(=O)c2ccc3ccccc3c2)[C@H]1O	5.1	3.67	
C=CCO[C@H]1[C@H](O)[C@H](COS(=O)(=O)c2cccc(C(F)(F)F)c2)O[C@@H](Oc2ccc(I)cc2)[C@H]1OC(=O)Cc1ccccc1	5.15	4.95	
C=CCO[C@H]1[C@H](O)[C@H](COS(=O)(=O)c2cccc(C(F)(F)F)c2)O[C@@H](Oc2ccc(I)cc2)[C@H]1OC(=O)c1ccccc1	7	7.5	
C=CCO[C@H]1[C@@H](O)[C@H](COS(=O)(=O)c2cccc(C(F)(F)F)c2)O[C@@H](Oc2ccc(I)cc2)[C@H]1OC(=O)C(C)C	3.3	4.2	30
C=CCO[C@@H]1[C@H](O)[C@H](Oc2ccc(I)cc2)O[C@@H](COS(=O)(=O)c2ccc3ccccc3c2)[C@H]1O	8.81		
C=CCO[C@H]1[C@H](O)[C@H](COS(=O)(=O)c2cccs2)O[C@@H](Oc2ccc(I)cc2)[C@H]1OC(C)=O	12.8		30
O=C(CCc1ccccc1)O[C@@H]1[C@H](Oc2ccc(I)cc2)O[C@@H](COS(=O)(=O)c2cccc(C(F)(F)F)c2)[C@@H](O)[C@@H]1OCCOC(=O)Nc1ccccc1	4.52	7.15	30
CCCO[C@H]1[C@H](O)[C@H](COS(=O)(=O)c2ccc3ccccc3c2)O[C@@H](Oc2ccc(OP(=O)(O)O)cc2)[C@H]1OC(C)=O [GLYCOMER]	> 50	> 50	
NC(=O)OCCO[C@@H]1[C@H](O)[C@H](Oc2ccc(I)cc2)O[C@@H](COS(=O)(=O)c2ccc3ccccc3c2)[C@H]1O	9.1	23.1	
C=CCO[C@H]1[C@H](O)[C@H](COS(=O)(=O)c2cccc(C(F)(F)F)c2)O[C@H](Oc2ccc(I)cc2)[C@@H]1OC(=O)CCC	2.6	4	
C=CCO[C@@H]1[C@H](O)[C@H](Oc2ccc(I)cc2)O[C@@H](COC(=O)c2ccc(Cl)cc2)[C@H]1O	20.5	25.2	
C=CCO[C@H]1[C@H](O)[C@H](COS(=O)(=O)c2ccc(Cl)cc2)O[C@@H](Oc2ccc(I)cc2)[C@H]1OC(C)=O	9.77		
